Values after ≈ are worked out from the molar mass of the structure shown.
Key:
Test in all cases: ≥ marks a high value that may be exact or a test limit, other limits are often not marked, values filed in µg/mL are converted to µM
Escherichia coli = test system: Escherichia coli
Pseudomonas aeruginosa = test system: Pseudomonas aeruginosa
Staphylococcus aureus MR = test system: Staphylococcus aureus MR
Staphylococcus aureus = test system: Staphylococcus aureus
[1] = test system: Micrococcus luteus ATCC 9341
Acinetobacter baumannii = test system: Acinetobacter baumannii
[2] = test system: Escherichia coli ATCC 25922
[3] = test system: Klebsiella pneumoniae ATCC 700603
[4] = test system: Pseudomonas aeruginosa ATCC 9027
[5] = test system: Staphylococcus aureus ATCC 25923
Bacillus subtilis 168 = test system: Bacillus subtilis 168
Escherichia coli B = test system: Escherichia coli B
Bacillus subtilis = test system: Bacillus subtilis
[6] = test system: Candida albicans ATCC 2002
[7] = test system: Staphylococcus aureus ATCC 2592
[8] = test system: Pseudomonas aeruginosa CMCCB 10104
Escherichia coli UB1005 = test system: Escherichia coli UB1005
[9] = test system: Salmonella enterica subsp. enterica serovar Typhimurium C77-31
[10] = test system: Staphylococcus aureus ATCC 29213
[11] = test system: Staphylococcus epidermidis ATCC 12228

Compound `CC[C@H](C)[C@H](NC(=O)[C@H](C)NC(=O)[C@H](CC(C)C)NC(=O)[C@H](CC(C)C)NC(=O)[C@H](CC(C)C)NC(=O)[C@H](C)N)C(=O)N[C@@H](CCCN=C(N)N)C(=O)N[C@@H](CCCCN)C(=O)N[C@@H](CCCN=C(N)N)C(N)=O` [ALLLAIRKR] has an MIC (Escherichia coli) of 5.7 µM (≈ 5.99 µg/mL), an MIC (Pseudomonas aeruginosa) of 3.8 µM (≈ 4 µg/mL) and an MIC (Staphylococcus aureus MR) of no less than 38 µM. It also gave an MIC (Staphylococcus aureus) of 3.8 µM (≈ 4 µg/mL).
Compound `CC(C)C[C@H](NC(=O)[C@H](C)N)C(=O)N1CCC[C@H]1C(=O)N[C@@H](Cc1c[nH]c2ccccc12)C(=O)N[C@@H](CCCCN)C(=O)N[C@@H](Cc1c[nH]c2ccccc12)C(=O)N1CCC[C@H]1C(=O)N[C@@H](Cc1c[nH]c2ccccc12)C(=O)N[C@@H](Cc1c[nH]c2ccccc12)C(=O)N1CCC[C@H]1C(=O)N[C@@H](Cc1c[nH]c2ccccc12)C(=O)N[C@@H](CCCN=C(N)N)C(=O)N[C@@H](CCCN=C(N)N)C(N)=O` [ALPWKWPWWPWRR] has an MIC [1] of 0.4 µM (≈ 0.746 µg/mL).
`CC[C@H](C)[C@H](NC(=O)[C@H](Cc1ccccc1)NC(=O)[C@H](CO)NC(=O)[C@H](CCCCN)NC(=O)[C@H](CC(C)C)NC(=O)[C@H](CCCCN)NC(=O)[C@H](CCCCN)NC(=O)[C@H](CC(C)C)NC(=O)[C@@H](NC(=O)[C@@H](NC(=O)[C@@H](N)Cc1ccccc1)[C@@H](C)O)[C@@H](C)CC)C(=O)N[C@@H](CCCCN)C(=O)O` [FTILKKLKSFIK] was tested, and the MIC (Acinetobacter baumannii) was no less than 64 µM, the MIC [2] was greater than 64 µM and the MIC [3] was greater than 64 µM. It also gave an MIC [4] of 32 µM (≈ 46.9 µg/mL) and an MIC [5] greater than 64 µM.
Work on `CC[C@H](C)[C@H](NC(=O)[C@H](CC(C)C)NC(=O)[C@H](CCCCN)NC(=O)CNC(=O)[C@H](CC(C)C)NC(=O)[C@@H](NC(=O)[C@H](CCCCN)NC(=O)[C@H](CO)NC(=O)[C@H](Cc1c[nH]c2ccccc12)NC(=O)[C@H](CCCCN)NC(=O)CN)[C@@H](C)CC)C(=O)N[C@@H](CCCN=C(N)N)C(N)=O` [GKWSKILGKLIR] yielded an MIC (Bacillus subtilis 168) of 1.7 µM (≈ 2.38 µg/mL), an MIC (Escherichia coli B) of 2.3 µM (≈ 3.21 µg/mL) and an MIC (Pseudomonas aeruginosa) of 28.3 µM (≈ 39.6 µg/mL). For the same compound, the MIC (Staphylococcus aureus) was 21.7 µM (≈ 30.3 µg/mL).
Work on `CC[C@H](C)[C@@H]1NC(=O)[C@H](CCCCN)NC(=O)[C@@H](NC(=O)[C@H](CCCCN)NC(=O)[C@H](CC(C)C)NC(=O)[C@@H](NC(=O)[C@H](CC(=O)O)NC(=O)[C@H](CC(C)C)NC(=O)[C@H](CC(C)C)NC(=O)[C@H](CCC(N)=O)NC(=O)CNC(=O)[C@H](C)NC(=O)[C@@H](NC(=O)[C@H](CCCCN)NC(=O)[C@H](CCCCN)NC(=O)[C@H](CC(C)C)NC(=O)CNC(=O)[C@H](CCC(=O)O)NC(=O)[C@H](CCCCN)NC(=O)[C@@H](NC(=O)[C@H](CO)NC(=O)[C@H](CC(=O)O)NC(=O)[C@H](CC(C)C)NC(=O)[C@H](CC(C)C)NC(=O)CN)C(C)C)C(C)C)[C@@H](C)O)CSSC[C@@H](C(=O)N[C@H](C(=O)N2CCC[C@H]2C(=O)N[C@@H](C)C(=O)O)[C@@H](C)O)NC(=O)CNC(=O)[C@H](CO)NC1=O` [GLLDSVKEGLKKVAGQLLDTLKCKISGCTPA] yielded an MIC (Bacillus subtilis) of 7.84 µM (≈ 25 µg/mL), an MIC [6] of 3.92 µM (≈ 12.5 µg/mL) and an MIC [2] of 1.98 µM (≈ 6.3 µg/mL). For the same compound, the MIC [7] was 1.98 µM (≈ 6.3 µg/mL).
In the case of `CC[C@H](C)[C@H](N)C(=O)N1CCC[C@H]1C(=O)N[C@@H](CC(C)C)C(=O)N[C@@H](CC(C)C)C(=O)N[C@@H](CCCN=C(N)N)C(=O)N[C@@H](CCCCN)C(=O)NCC(=O)N[C@@H](CCCCN)C(=O)N[C@@H](CCCCN)C(=O)N[C@H](C(=O)N[C@H](C(=O)N[C@@H](Cc1c[nH]c2ccccc12)C(=O)N[C@@H](Cc1c[nH]c2ccccc12)C(=O)O)[C@@H](C)CC)[C@@H](C)CC` [IPLLRKGKKIIWW], the MIC (Acinetobacter baumannii) is reported as no less than 64 µM, the MIC [2] is reported as greater than 64 µM and the MIC [3] is reported as greater than 64 µM. It also gave an MIC [4] of 64 µM (≈ 106 µg/mL) and an MIC [5] greater than 64 µM.
For `CC(C)C[C@@H]1NC(=O)[C@H](CCCCN)NC(=O)[C@H](CC(=O)O)NC(=O)[C@H](CC(N)=O)NC(=O)[C@H](Cc2ccc(O)cc2)NC(=O)[C@@H](NC(=O)[C@H](CCCCN)NC(=O)[C@@H]2CCCN2C(=O)[C@H](C)NC(=O)[C@H](CCCCN)NC(=O)[C@H](CS)NC(=O)[C@H](CCCCN)NC(=O)[C@H](CC(C)C)NC(=O)[C@H](CCCCN)NC(=O)[C@H](CC(C)C)NC(=O)[C@H](CCCCN)NC(=O)[C@H](CCC(=O)O)NC(=O)[C@@H](N)CCCCN)CSSC[C@@H](C(=O)N[C@H](C(=O)O)[C@@H](C)O)NC(=O)[C@H](C)NC1=O` [KEKLKLKCKAPKCYNDKLACT], the MIC [6] was no less than 82.4 µM, the MIC [2] was greater than 82.4 µM and the MIC [8] was no less than 82.4 µM. For the same compound, the MIC [5] was greater than 82.4 µM.
`CC[C@H](C)[C@H](NC(=O)[C@H](CCC(N)=O)NC(=O)[C@H](CCCCN)NC(=O)CNC(=O)[C@H](CC(C)C)NC(=O)[C@H](CCC(N)=O)NC(=O)[C@@H]1CCCN1C(=O)[C@H](CC(C)C)NC(=O)[C@H](CCCCN)NC(=O)[C@H](C)NC(=O)[C@H](CCC(=O)O)NC(=O)[C@H](CCCCN)NC(=O)[C@@H](NC(=O)[C@H](CCSC)NC(=O)[C@@H](NC(=O)[C@@H](NC(=O)[C@@H](NC(=O)[C@@H](N)CO)[C@@H](C)CC)[C@@H](C)CC)[C@@H](C)O)[C@@H](C)O)C(=O)N[C@@H](C)C(=O)N[C@H]1CSSC[C@@H](C(=O)O)NC(=O)[C@H]([C@@H](C)O)NC(=O)[C@H](CC(N)=O)NC(=O)[C@H](Cc2ccc(O)cc2)NC(=O)[C@H](CC(C)C)NC(=O)[C@H](CCCN=C(N)N)NC1=O` [SIITMTKEAKLPQLGKQIACRLYNTC] was tested, and the MIC (Bacillus subtilis) was no less than 41 µM, the MIC [6] was 20.5 µM (≈ 60 µg/mL) and the MIC [2] was 41 µM (≈ 120 µg/mL). It also gave an MIC [7] of 10.3 µM (≈ 30 µg/mL).
`CC[C@H](C)[C@H](NC(=O)[C@@H]1CCCN1C(=O)[C@@H](NC(=O)[C@@H](N)C(C)C)[C@@H](C)CC)C(=O)N[C@H](C(=O)N[C@@H](CO)C(=O)NCC(=O)N[C@@H](CC(C)C)C(=O)N[C@@H](CC(C)C)C(=O)N[C@@H](CO)C(=O)N[C@@H](CO)C(=O)N[C@@H](CC(C)C)C(=O)N[C@@H](CC(C)C)C(N)=O)C(C)C` [VIPIVSGLLSSLL] gave an MIC [2] of 9.54 µM (≈ 12.5 µg/mL) and an MIC [7] of 4.77 µM (≈ 6.25 µg/mL).
Compound `CC[C@H](C)[C@H](NC(=O)[C@H](CCCCN)NC(=O)[C@H](CCCCN)NC(=O)[C@H](Cc1c[nH]c2ccccc12)NC(=O)[C@H](CC(N)=O)NC(=O)[C@@H](N)C(C)C)C(=O)N[C@@H](CC(C)C)C(=O)N1CCC[C@H]1C(=O)N[C@@H](CCCCN)C(=O)N[C@H](C(=O)N[C@H](C(=O)N[C@@H](CCCCN)C(=O)N[C@H](C(=O)N[C@@H](C)C(=O)N[C@@H](CCCCN)C(N)=O)C(C)C)[C@@H](C)CC)[C@@H](C)CC` [VNWKKILPKIIKVAK] has an MIC (Bacillus subtilis 168) of 0.7 µM (≈ 1.24 µg/mL), an MIC (Escherichia coli B) of 2.5 µM (≈ 4.44 µg/mL) and an MIC (Pseudomonas aeruginosa) of 100 µM (≈ 178 µg/mL). The MIC (Staphylococcus aureus) was 80 µM (≈ 142 µg/mL).
`CC[C@H](C)[C@H](NC(=O)[C@H](CCCCN)NC(=O)[C@H](C)NC(=O)[C@H](CC(C)C)NC(=O)[C@@H](NC(=O)[C@H](CCCCN)NC(=O)[C@H](CCCCN)NC(=O)[C@H](Cc1c[nH]c2ccccc12)NC(=O)[C@H](CC(N)=O)NC(=O)[C@@H](N)C(C)C)C(C)C)C(=O)N[C@H](C(=O)N[C@@H](CCCCN)C(=O)N[C@H](C(=O)N[C@@H](C)C(=O)N[C@@H](CCCCN)C(N)=O)C(C)C)[C@@H](C)CC` [VNWKKVLAKIIKVAK] gave an MIC (Bacillus subtilis 168) of 0.6 µM (≈ 1.04 µg/mL), an MIC (Escherichia coli B) of 0.7 µM (≈ 1.22 µg/mL) and an MIC (Pseudomonas aeruginosa) of 26.9 µM (≈ 46.7 µg/mL). It also gave an MIC (Staphylococcus aureus) of 7.2 µM (≈ 12.5 µg/mL).
Work on `CC(C)[C@H](N)C(=O)N[C@H](C(=O)N[C@@H](CCCCN)C(=O)N[C@@H](Cc1ccccc1)C(=O)N[C@@H](CO)C(=O)N[C@@H](Cc1ccc(O)cc1)C(=O)N[C@@H](CCCN=C(N)N)C(=O)N[C@@H](CCCCN)C(=O)NCC(=O)N[C@@H](CO)C(=O)N1CCC[C@H]1C(=O)N[C@@H](C)C(=O)N1CCC[C@H]1C(=O)N[C@@H](CCC(N)=O)C(=O)N[C@@H](CCCCN)C(=O)N[C@@H](CC(N)=O)C(=O)O)C(C)C` [VVKFSYRKGSPAPQKN] yielded an MIC [6] of no less than 111 µM, an MIC [2] greater than 111 µM and an MIC [8] of no less than 111 µM. For the same compound, the MIC [5] was greater than 111 µM.
With `CC[C@H](C)[C@H](NC(=O)[C@H](CCCN=C(N)N)NC(=O)[C@H](Cc1c[nH]c2ccccc12)NC(=O)[C@H](CCCN=C(N)N)NC(=O)[C@@H](NC(=O)[C@H](CCCCN)NC(=O)[C@H](Cc1c[nH]c2ccccc12)NC(=O)[C@H](CCCN=C(N)N)NC(=O)[C@@H](NC(=O)[C@H](CCCN=C(N)N)NC(=O)[C@@H](N)Cc1c[nH]c2ccccc12)[C@@H](C)CC)[C@@H](C)O)C(=O)N[C@@H](CCCCN)C(N)=O` [WRIRWKTRWRIK] the MIC (Acinetobacter baumannii) was 2 µM (≈ 3.57 µg/mL), the MIC [2] was 4 µM (≈ 7.14 µg/mL) and the MIC (Escherichia coli UB1005) was 2 µM (≈ 3.57 µg/mL). For the same compound, the MIC (Escherichia coli) was 2 µM (≈ 3.57 µg/mL), the MIC (Pseudomonas aeruginosa) was 8 µM (≈ 14.3 µg/mL) and the MIC [9] was 2 µM (≈ 3.57 µg/mL). It also gave an MIC [5] of 2 µM (≈ 3.57 µg/mL), an MIC [10] of 2 µM (≈ 3.57 µg/mL) and an MIC (Staphylococcus aureus) of 2 µM (≈ 3.57 µg/mL). For the same compound, the MIC [11] was 2 µM (≈ 3.57 µg/mL).
